From ChEMBL document CHEMBL2073811, “Uptake of the mycotoxin ochratoxin A in liver cells occurs via the cloned organic anion transporting polypeptide” (J Pharmacol Exp Ther, 1996)

Experiments:
[1] = target: T1, Solute carrier organic anion transporter family member 1A1 (Rattus norvegicus, UniProt P46720); assay: TP_TRANSPORTER: inhibition of Ochratoxin A uptake (OTA: 1 uM, CRC-220: 100uM) in Xenopus laevis oocytes; assay type: functional, cell-based; conditions: oocyte
T1 sequence (P46720 whole entry): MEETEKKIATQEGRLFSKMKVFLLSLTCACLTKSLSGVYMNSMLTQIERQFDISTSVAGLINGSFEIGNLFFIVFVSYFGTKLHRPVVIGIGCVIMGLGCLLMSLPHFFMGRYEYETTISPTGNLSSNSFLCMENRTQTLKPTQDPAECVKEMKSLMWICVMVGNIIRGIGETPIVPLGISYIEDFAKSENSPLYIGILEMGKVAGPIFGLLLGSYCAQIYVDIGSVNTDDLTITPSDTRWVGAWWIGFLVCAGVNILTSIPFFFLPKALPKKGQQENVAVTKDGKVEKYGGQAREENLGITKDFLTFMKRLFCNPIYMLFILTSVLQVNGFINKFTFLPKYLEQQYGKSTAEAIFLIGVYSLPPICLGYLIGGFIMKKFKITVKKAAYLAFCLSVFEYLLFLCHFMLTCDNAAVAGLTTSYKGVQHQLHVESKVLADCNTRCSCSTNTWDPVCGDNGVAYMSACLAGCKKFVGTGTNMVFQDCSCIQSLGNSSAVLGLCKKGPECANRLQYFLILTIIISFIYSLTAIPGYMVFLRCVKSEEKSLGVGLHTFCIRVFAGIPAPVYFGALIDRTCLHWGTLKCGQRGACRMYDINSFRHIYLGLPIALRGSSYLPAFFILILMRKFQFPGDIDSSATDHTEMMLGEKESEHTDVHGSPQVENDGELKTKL

[2] = target: T1, Solute carrier organic anion transporter family member 1A1; assay: TP_TRANSPORTER: uptake in Xenopus laevis oocytes; assay type: functional, cell-based, Oocyte; conditions: Xenopus laevis oocytes expressing the transporter
[3] = target: T1, Solute carrier organic anion transporter family member 1A1; assay: TP_TRANSPORTER: inhibition of Ochratoxin A uptake (OTA: 1 uM, E1S: 100uM) in Xenopus laevis oocytes; assay type: functional, cell-based; conditions: oocyte
[4] = target: T1, Solute carrier organic anion transporter family member 1A1; assay: TP_TRANSPORTER: inhibition of Ochratoxin A uptake (OTA: 1 uM, GC: 100uM) in Xenopus laevis oocytes; assay type: functional, cell-based; conditions: oocyte
[5] = target: T1, Solute carrier organic anion transporter family member 1A1; assay: TP_TRANSPORTER: inhibition of Ochratoxin A uptake (OTA: 1 uM, BSP: 100uM) in Xenopus laevis oocytes; assay type: functional, cell-based; conditions: oocyte

COc1cc(C)c(S(=O)(=O)N[C@@H](CC(=O)O)C(=O)N[C@H](Cc2ccc(C(=N)N)cc2)C(=O)N2CCCCC2)c(C)c1C
Activity [1]: inhibitor [+]

C[C@@H]1Cc2c(Cl)cc(C(=O)N[C@@H](Cc3ccccc3)C(=O)O)c(O)c2C(=O)O1 [3R14S-OCHRATOXIN A]
Km [2]: 16.6 µM

C[C@]12CC[C@@H]3c4ccc(OS(=O)(=O)O)cc4CC[C@H]3[C@@H]1CCC2=O [ESTRONE SULFURIC ACID]
Activity [3]: inhibitor [+]

C[C@H](CCC(=O)NCC(=O)O)[C@H]1CC[C@H]2[C@@H]3[C@H](O)C[C@@H]4C[C@H](O)CC[C@]4(C)[C@H]3C[C@H](O)[C@]12C [GLYCOCHOLIC ACID]
Activity [4]: inhibitor [+]

O=C1OC(c2ccc(O)c(S(=O)(=O)[O-])c2)(c2ccc(O)c(S(=O)(=O)[O-])c2)c2c(Br)c(Br)c(Br)c(Br)c21.[Na+].[Na+] [SULFOBROMOPHTHALEIN SODIUM]
Activity [5]: inhibitor [+]
